Substitutions are numbered along the chain they refer to.
Columns and labels:
Experiment in all cases: SIRT1 activation dose-response, OAcADPr assay with Ac-p53(W5) substrate
Format in all cases: biochemical
full-length hSIRT1 I223A = molecular target: T1, full-length hSIRT1 I223A (Homo sapiens, UniProt Q96EB6, I223A); conditions: for EC50: hSIRT1 I223A, activation dose-response, Ac-p53(W5) substrate
T1 construct: The following point mutants of full-length hSIRT1 were generated; His6 (C); made in house
T1 sequence (Q96EB6 1-747 I223A): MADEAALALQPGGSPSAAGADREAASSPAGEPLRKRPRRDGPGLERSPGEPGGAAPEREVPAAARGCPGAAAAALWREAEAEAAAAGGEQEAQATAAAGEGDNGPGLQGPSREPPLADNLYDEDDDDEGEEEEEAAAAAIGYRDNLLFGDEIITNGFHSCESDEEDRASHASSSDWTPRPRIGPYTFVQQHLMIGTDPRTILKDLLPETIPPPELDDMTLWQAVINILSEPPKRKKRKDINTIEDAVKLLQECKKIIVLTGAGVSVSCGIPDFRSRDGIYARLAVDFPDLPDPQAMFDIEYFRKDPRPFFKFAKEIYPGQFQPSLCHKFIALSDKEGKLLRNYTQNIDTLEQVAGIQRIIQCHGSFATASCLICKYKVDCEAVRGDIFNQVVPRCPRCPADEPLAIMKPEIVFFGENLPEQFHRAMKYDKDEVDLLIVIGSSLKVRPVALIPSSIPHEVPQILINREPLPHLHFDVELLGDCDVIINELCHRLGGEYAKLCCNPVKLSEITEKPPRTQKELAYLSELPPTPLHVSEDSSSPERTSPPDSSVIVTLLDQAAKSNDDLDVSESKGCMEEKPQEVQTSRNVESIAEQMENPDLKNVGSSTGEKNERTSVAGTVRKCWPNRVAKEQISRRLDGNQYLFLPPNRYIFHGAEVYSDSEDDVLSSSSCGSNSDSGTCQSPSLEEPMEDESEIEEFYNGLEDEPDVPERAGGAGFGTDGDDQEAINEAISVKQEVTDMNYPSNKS

full-length hSIRT1 E230A = molecular target: T2, full-length hSIRT1 E230A (Homo sapiens, UniProt Q96EB6, E230A); conditions: for EC50: hSIRT1 E230A, activation dose-response, Ac-p53(W5) substrate
T2 construct: His6 (C); made in house
T2 sequence (Q96EB6 1-747 E230A): T1 sequence (Q96EB6 1-747 I223A) with A223I, E230A

full-length hSIRT1 WT = molecular target: T3, full-length hSIRT1 WT (Homo sapiens, UniProt Q96EB6); conditions: for EC50: hSIRT1 WT, activation dose-response, Ac-p53(W5) substrate
T3 construct: Full-length human SIRT1 (hSIRT1) proteins were expressed with a C-terminal His6 tag; His6 (C); made in house
T3 sequence (Q96EB6 1-747): T1 sequence (Q96EB6 1-747 I223A) with A223I

EC50 fold shift (mutant EC50/wild-type EC50) (full-length hSIRT1 I223A) | RVmax fold shift = (wild-type RVmax−1)/(mutant RVmax−1) (full-length hSIRT1 I223A) | EC50 (full-length hSIRT1 I223A) | EC50 fold shift (mutant EC50/wild-type EC50) (full-length hSIRT1 E230A) | RVmax fold shift = (wild-type RVmax−1)/(mutant RVmax−1) (full-length hSIRT1 E230A) | EC50 (full-length hSIRT1 E230A) | EC50 fold shift (mutant EC50/wild-type EC50) (full-length hSIRT1 WT) | RVmax fold shift = (wild-type RVmax−1)/(mutant RVmax−1) (full-length hSIRT1 WT) | EC50 (full-length hSIRT1 WT) | SMILES
2.51 | 6.90 | 5.51 µM | 1.19 | 3.58 | 2.61 µM | 1.00 | 1.00 | 2.2 µM | O=C(Nc1ccccn1)N1c2nc(-c3cccc(C(F)(F)F)c3)ccc2N2CC[C@H]1C2 [Example 7]
4.91 | 0.97 | 2.36 µM | 1.11 | 2.39 | 0.53 µM | 1.00 | 1.00 | 0.48 µM | Cc1cnc2c(NC(=O)N3c4nc(-c5cccc(C(F)(F)F)c5)ccc4N4CC[C@H]3C4)cccc2n1 [Example 8]

From patent US9765075B2, “Substituted bridged urea analogs as sirtuin modulators” (GLAXOSMITHKLINE LLC, priority 2013, dated 2017)
